In patent US20250179033A1 (priority 2021, published 2025):
“And” between values parts separate entries of the source, which are not always exact repeats. Equal entries are not always repeated. Where two headings read alike, the source gives them in different places.

Test: In vivo pharmacokinetics, plasma and brain
Design: species or system Balb/C male mice
Conditions: 250 mg/kg intragastric; for AUC(0-inf) / MRT / half-life / AUC(0-t) / Cmax: male, Balb/C, mouse, po; for AUC(0-inf) / MRT / half-life / AUC(0-t) / Cmax / CL / Kel / Vd: plasma; for AUC(0-t): read-out: AUC0-7
Procedure: The pharmacokinetics of compound 1 was studied in white Balb/C male mice. 22 animals with an average body weight of 20 g were selected for the study. Before the study, the animals were kept on a standard vivarium ration with dry pelleted feed. All the test animals had free access to water but were deprived of food for 1 hour before administration of the compound. This regimen was continued for another hour after the administration.
Compound 1 in a dose of 250 mg/kg of body weight was administered as 0.5 ml of prepared suspension in 0.5% CMC by intragastric intubation. The animals were euthanized by decapitation for blood and brain sampling. Blood and brain samples (3 animals per time point) were taken at 0.5, 1, 2, 3, 5 and 7 hours after administration for pharmacokinetic evaluation. Blood was collected in heparinized tubes and centrifuged at 3500 RPM. Plasma was separated from formed elements and immediately frozen at −20° C. in freezer. This storage continued before transferring plasma for analysis. Serum from 6 untreated animals was used as a control and for equipment calibration with the compound. Mice brain was immediately frozen at −120° C.
Plasma separation: Samples of experimental blood ([…]) from animals were centrifuged at 3500 rpm for 15 minutes.
Sample preparation: A mixture of 60 μL of plasma and 180 μL of acetonitrile (MeCN) by intensive shaking (Vortex) for 30 sec. Centrifugation 32000 g for 4 min. After centrifugation the 150 μL of organic layer was injected into the HPLC column.
Equipment: HPLC System Agilent 1290 Infinity, MS spectrometer Agilent 6460 (Agilent Technologies, Santa Clara, California, United States of America)
HPLC conditions: Column: Agilent Eclipse Plus C18 RRHD 1.8 um 2.1×50 mm (Agilent Technologies, Santa Clara, California, United States of America), Temperature: 40° C., Flow speed: 0.4 mL/min
Eluent: A: water, 0.1% formic acid; B: 85% acetonitrile in water, 0.1% formic acid
Gradient: 0.0-3.0 min: 60% B (separation), 3.0-4.0 min: 60->97% B (washing and regeneration), 4.0-6.0 min: 97% B, 6.0-6.1 min: 97->60% B, 6.1-9.0 min: 60% B, Volume of sample: 2 μL. Retention time in above conditions: 2.40 min.
MS conditions: ESI(+), MRM 400->209, Dwell time: 200 ms, Fragmentor: 135 V, Collision energy: 12, Cell Accelerator: 3 V, Gas Temp: 350° C., Gas Flow: 12 I/min, Nebulizer: 35 psi, Sheath gas Temp: 300° C., Capillary Voltage: 3500 V, Nozzle Voltage: 450 V; Diverter valve: 0.0-1.3 min: to waste; 1.3-3.0 min: to MS, data acquisition, 3.0-7.0 min: to MS, idle, 7.0- . . . min: to waste
Brain separation: Samples of experimental brain from animals were dispersed at 25K turn/min for 3 minutes and 100 mg of each sample was balanced to a sterile container.
Sample preparation: A mixture of 100 mg of brain and 100 μL of water was treated by zirconium balls in a homogonisator MagNA Lyser for 30 sec. 300 μL of MeCN was added and intensive shaking (Vortex) for 30 sec was performed. Centrifugation 32000 g for 4 min.
Equipment: HPLC System Agilent 1290 Infinity, MS spectrometer Agilent 6460 (Agilent Technologies, Santa Clara, California, United States of America).
HPLC conditions: Column: Agilent Eclipse Plus C18 RRHD 1.8 um 2.1×50 mm (Agilent Technologies, Santa Clara, California, United States of America), Temperature: 40° C., Flow speed: 0.4 mL/min.
Eluent: A: water, 0.1% formic acid; B: 85% acetonitrile in water, 0.1% formic acid.
Gradient: 0.0-3.0 min: 60% B (separation), 3.0-4.0 min: 60->97% B (washing and regeneration), 4.0-6.0 min: 97% B, 6.0-6.1 min: 97->60% B, 6.1-9.0 min: 60% B, Volume of sample: 2 μL.
Retention time in above conditions: 2.40 min […]

Nc1nc(Nc2ccc(Cl)cc2)nn1S(=O)(=O)c1ccc2ccccc2c1 [Compound 1, N3-(4-chlorophenyl)-1-(2-naphthylsulfonyl)-1,2,4-triazole-3,5-diamine]
AUC(0-inf) (250 mg/kg, mean of mice groups): 6220 ng·h/mL | MRT (250 mg/kg, mean of mice groups): 5.9 h | half-life (250 mg/kg, mean of mice groups): 4.1 h | AUC(0-t) (250 mg/kg, mean of mice groups): 4050 ng·h/mL | AUC(0-inf) (250 mg/kg, mice group 1): 6230 ng·h/mL | Cmax (250 mg/kg, mice group 1): 1050 ng/mL | MRT (250 mg/kg, mice group 1): 7.4 h | half-life (250 mg/kg, mice group 1): 5 h | AUC(0-t) (250 mg/kg, mice group 1): 3710 ng·h/mL | AUC(0-inf) (250 mg/kg, mice group 2): 6890 ng·h/mL | Cmax (250 mg/kg, mice group 2): 1170 ng/mL | MRT (250 mg/kg, mice group 2): 6.8 h | half-life (250 mg/kg, mice group 2): 5 h | AUC(0-inf) (250 mg/kg, mice group 3): 5550 ng·h/mL | Cmax (250 mg/kg, mice group 3): 1350 ng/mL | MRT (250 mg/kg, mice group 3): 3.6 h | half-life (250 mg/kg, mice group 3): 2.4 h | AUC(0-t) (250 mg/kg, mice group 3): 4080 ng·h/mL | concentrations of the compound in brain (mice, preliminary, 250 mg/kg): 1-5 μg/ml and 2.5-12.5 μM | CL (mean of mice groups): 0.809 L/h | Kel (mean of mice groups): 0.1872 h⁻¹ | Vd (mean of mice groups): 4.8 L | CL (mice group 1): 0.803 L/h | Kel (mice group 1): 0.1382 h⁻¹ | Vd (mice group 1): 5.8 L | CL (mice group 2): 0.725 L/h | Kel (mice group 2): 0.1381 h⁻¹ | Vd (mice group 2): 5.3 L | CL (mice group 3): 0.901 L/h | Kel (mice group 3): 0.2852 h⁻¹ | Vd (mice group 3): 3.2 L
